From ChEMBL document CHEMBL4613232, “Novel 3,3-disubstituted oxindole derivatives. Synthesis and evaluation of the anti-proliferative activity” (Bioorg Med Chem Lett, 2020)
pIC50: −log10 of the molar value.

What was measured:
[1] = system: PC-3; assay: Antiproliferative activity against human PC3 cells; assay type: functional, cell-based
[2] = system: MCF7; assay: Antiproliferative activity against human MCF7 cells; assay type: functional, cell-based
[3] = system: SW-620; assay: Antiproliferative activity against human SW620 cells; assay type: functional, cell-based
[4] = system: A-375; assay: Antiproliferative activity against human A375 cells; assay type: functional, cell-based
[5] = system: MIA PaCa-2; assay: Antiproliferative activity against human MIAPaCa2 cells; assay type: functional, cell-based
[6] = system: PBMC; assay: Cytotoxicity against human PBMC assessed as reduction in cell viability; assay type: cell-based

Compound	pIC50 [1]	pIC50 [2]	pIC50 [3]	pIC50 [4]	pIC50 [5]	Activity [3]	Activity [5]	pIC50 [6]
CCOP(=O)(NC1(Cc2ccccc2)C(=O)Nc2ccc(Br)cc21)OCC (centres undefined)	< 4.30	< 4.30	4.56	< 4.30	4.52	Dose-dependent effect	Dose-dependent effect	4.29
CCOC(=O)CC1(NC=O)C(=O)N(C(C)=O)c2ccccc21 (centres undefined)	4.77	4.52	< 4.30	< 4.30	< 4.30			< 4.00
NC1(Cc2ccccc2)C(=O)Nc2ccc(Br)cc21 (centres undefined)	< 4.30	< 4.30	< 4.30	< 4.30	< 4.30			< 4.00
O=C(NC1(Cc2ccccc2)C(=O)Nc2ccc(Br)cc21)c1ccccc1 (centres undefined)	< 4.30	< 4.30	< 4.30	< 4.30	< 4.30			< 4.00
CC(=O)N1C(=O)C(Cc2ccccc2)(NC=O)c2ccccc21 (centres undefined)	4.74	4.84	< 4.30	< 4.30	4.33			4.34

The next lines start with results.

pIC50 [1]	pIC50 [2]	pIC50 [3]	pIC50 [4]	pIC50 [5]	Compound	Activity [3]	Activity [5]	pIC50 [6]
5.05	4.75	5.01	5.19	5.13	O=CNC1(Cc2ccccc2)C(=O)Nc2ccc(Br)cc21 (centres undefined)			4.12
4.49	< 4.30	< 4.30	< 4.30	< 4.30	CCOC(=O)N1C(=O)C(Cc2ccccc2)(NC=O)c2cc(Br)ccc21 (centres undefined)			< 4.00
	< 4.30	< 4.30	< 4.30		CCCC1(NC(=O)OC)C(=O)Nc2ccccc21 (centres undefined)			< 4.00
< 4.30	< 4.30	4.43	< 4.30	4.37	NC1(Cc2ccccc2)C(=O)Nc2ccccc21 (centres undefined)			< 4.00
